Test results from ChEMBL document CHEMBL5236615, “Discovery of Novel N-Heterocyclic-Fused Deoxypodophyllotoxin Analogues as Tubulin Polymerization Inhibitors Targeting the Colchicine-Binding Site for Cancer Treatment” (J Med Chem, 2022).
Calls of active or inactive are those of the source. The calls are words filed in the database; no cut-off is given here.

Assays:
[1] = test system: K562; assay: cells; conditions: Homo sapiens, K562, 72 h
Description: Antiproliferative activity against human K562 cells measured after 72 hrs by MTT assay

[2] = test system: HT-29; assay: Antiproliferative activity against human HT-29 cells measured after 72 hrs by MTT assay; assay type: functional, cell-based; conditions: HT-29, 72 h
[3] = test system: MCF7; assay: cells; conditions: Homo sapiens, MCF7, 72 h
Description: Antiproliferative activity against human MCF7 cells measured after 72 hrs by MTT assay

[4] = Metabolic stability in human liver microsomes assessed as half life at 1 uM by LC/MS analysis; assay type: ADME, Microsome
[5] = Metabolic stability in human liver microsomes assessed as intrinsic clearance at 1 uM by LC/MS analysis; assay type: ADME, Microsome; conditions: read-out: CLH
[6] = test system: HCT-116; assay: Antiproliferative activity against human HCT-116 cells measured after 72 hrs by MTT assay; assay type: functional, cell-based; conditions: HCT-116, 72 h
[7] = Antitumor activity against paclitaxel-resistant human MCF7/TxR cells xenografted in Balb/c mouse assessed as tumor growth inhibition at 10 mg/kg, ip administered for every 2 days for 21 days; assay type: functional; conditions: 504 h, time 21 day, read-out: TGI
[8] = Antiproliferative activity against paclitaxel-resistant human MCF7/TxR cells measured after 72 hrs by MTT assay; assay type: functional, cell-based
[9] = Toxicity in Balb/c mouse assessed as pathological changes in blood aspartate aminotransferase level at 10 mg/kg, ip administered for every 2 days for 14 days; assay type: organism-based; conditions: in vivo, 336 h, time 14 day
[10] = Toxicity in Balb/c mouse assessed as pathological changes in blood alanine aminotransferase level at 10 mg/kg, ip administered for every 2 days for 14 days; assay type: organism-based; conditions: in vivo, 336 h, time 14 day
[11] = Antiproliferative activity against paclitaxel-resistant human A549/TxR cells measured after 72 hrs by MTT assay; assay type: functional, cell-based
[12] = biological target: Tubulin (Homo sapiens) (UniProt P68371+Q9H4B7+P0DPH7+P68366+Q13509+Q71U36+P04350+Q3ZCM7+P07437+P68363+Q9BQE3+Q6PEY2+Q13885+Q9BVA1+Q9BUF5); assay: Disruption of microtubule network in human MCF7 cells assessed as broken microtubule filaments at 20 nM measured after 6 hrs by immunofluorescence assay; assay type: cell-based
[13] = biological target: Tubulin beta (Homo sapiens) (UniProt P68371+Q9H4B7+Q13509+P04350+Q3ZCM7+P07437+Q13885+Q9BVA1+Q9BUF5+A6NNZ2); assay: Binding affinity to beta-tubulin colchicine binding site in human MCF-7 cells assessed as inhibition of EBI-beta-tubulin adduct band formation preincubated for 2 hrs followed by EBI addition and measured after 1.5 hrs by EBI competition based Western blotting analysis; assay type: cell-based; conditions: MCF7, dose 0.2-25 µM, time 3.5 hrs

Compound	IC50 [1] [nM]	IC50 [2] [nM]	IC50 [3] [nM]	IC50 [6] [nM]	further results
COc1c(Br)cc([C@@H]2c3cc4c(cc3C[C@H]3COC(=O)N32)OCCO4)cc1Br	6.7	2.4	4.3	3.3	half-life at 1 µM [4]: 1.27 min; CLint scaled at 1 µM [5]: 1370 mL/min/kg
COc1cc([C@@H]2c3cc4c(cc3C[C@H]3COC(=O)N32)OCCO4)cc(OC)c1OC	17.1	14.9	17.3	6.8	half-life at 1 µM [4]: 2.19 min; CLint scaled at 1 µM [5]: 794 mL/min/kg
CCN1C(=O)[C@@H]2Cc3cc4c(cc3[C@@H](c3cc(OC)c(OC)c(OC)c3)N2C1=O)OCCO4	> 5000	> 5000	> 5000	> 5000	–
COc1cc([C@@H]2c3cc4c(cc3C[C@H]3C(=O)NC(=O)N23)OCCO4)cc([N+](=O)[O-])c1OC	53.4	49.9	40.7	31.6	–
COc1cc([C@@H]2c3cc4c(cc3C[C@H]3COC(=O)[C@@H]32)OCO4)cc(OC)c1OC [DESOXYPODOPHYLLOTOXIN]	16	16.6	6	14.5	half-life at 1 µM [4]: 1.12 min; CLint scaled at 1 µM [5]: 1440 mL/min/kg
COc1cc([C@@H]2c3cc4c(cc3C[C@H]3COC(=O)N32)OCCCO4)cc2c1OCO2	193	611	965	137	–
CCN1C(=O)[C@@H]2Cc3cc4c(cc3[C@@H](c3cc(OC)c(OC)c(OC)c3)N2C1=S)OCCO4	> 5000	> 5000	> 5000	> 5000	–
COc1cc([C@@H]2c3cc4c(cc3C[C@H]3COC(=O)N32)OCCO4)cc(F)c1OC	13.4	18.2	11.4	10.1	–
COc1cc([C@@H]2c3cc4c(cc3C[C@H]3C(=O)N(C)C(=S)N23)OCCO4)cc(OC)c1OC	> 5000	> 5000	> 5000	> 5000	–
CCN1C(=O)[C@@H]2Cc3cc4c(cc3[C@@H](c3cc(OC)c(OC)c(OC)c3)N2C1=S)OCO4	> 5000	> 5000	> 5000	> 5000	–
COc1cc([C@@H]2c3cc4c(cc3C[C@H]3COC(=O)N32)OCO4)cc(OC)c1OC	20	26.7	33.6	16.6	–
CCCN1CC(=O)N2[C@H](c3cc(OC)c(OC)c(OC)c3)c3cc4c(cc3C[C@H]2C1=O)OCO4	> 5000	> 5000	> 5000	> 5000	–
O=C1NC(=O)N2[C@H](c3cc(Cl)nc(Cl)c3)c3cc4c(cc3C[C@@H]12)OCCO4	424	357	400	533	–
COc1cc([C@@H]2c3cc4c(cc3C[C@H]3C(=O)NC(=O)N23)OCCO4)cc(F)c1OC	29.5	26.3	21.9	20.1	–
O=C1OC[C@@H]2Cc3cc4c(cc3[C@@H](c3ccc(OC(F)F)c(OC(F)F)c3)N12)OCCO4	316	74.8	265	918	–
COc1cc([C@@H]2c3cc4c(cc3C[C@H]3COC(=O)N32)OCCO4)ccc1F	154	63.4	376	273	–
COc1cc([C@@H]2c3cc4c(cc3C[C@H]3C(=O)N(C)C(=S)N23)OCO4)cc(OC)c1OC	> 5000	> 5000	> 5000	> 5000	–
COc1cc([C@@H]2c3cc4c(cc3C[C@H]3COC(=O)N32)OCCCO4)cc(OC)c1OC	107	81.9	58.8	119	–
O=C1NC(=O)N2[C@H](c3cc(Cl)c(F)c(Cl)c3)c3cc4c(cc3C[C@@H]12)OCCO4	49	23.2	48.8	22.9	half-life at 1 µM [4]: 14.4 min; CLint scaled at 1 µM [5]: 121 mL/min/kg
COc1cc([C@@H]2c3cc4c(cc3C[C@H]3COC(=O)N32)OCCO4)cc(OC)c1Br	39.5	48.4	37.5	103	–

Compound	IC50 [1] [nM]	IC50 [2] [nM]	IC50 [3] [nM]	IC50 [6] [nM]	further results
O=C1OC[C@@H]2Cc3cc4c(cc3[C@@H](c3ccncc3)N12)OCO4	> 5000	> 5000	> 5000	> 5000	–
CC(=O)O[C@H]1C(=O)[C@@]2(C)[C@H]([C@H](OC(=O)c3ccccc3)[C@]3(O)C[C@H](OC(=O)[C@H](O)[C@@H](NC(=O)c4ccccc4)c4ccccc4)C(C)=C1C3(C)C)[C@]1(OC(C)=O)CO[C@@H]1C[C@@H]2O [PACLITAXEL]	29.6	10.8	19.7	62.9	inhibition in vivo at 10 mg/kg [7]: 28.6%; IC50 [8]: 2750 nM; Activity [9]: Toxic; Activity [10]: Toxic; IC50 [11]: 1670 nM
COc1cc([C@@H]2c3cc4c(cc3C[C@H]3COC(=O)N32)OCCO4)cc2c1OCO2	29.6	44.3	35.4	50.9	–
CCCN1CC(=O)N2[C@H](c3cc(OC)c(OC)c(OC)c3)c3cc4c(cc3C[C@H]2C1=O)OCCO4	> 5000	> 5000	> 5000	> 5000	–
COc1cc([C@@H]2c3cc4c(cc3C[C@H]3COC(=O)N32)OCO4)cc2c1OCO2	72.3	212	149	56.6	–
COc1c(Cl)cc([C@@H]2c3cc4c(cc3C[C@H]3COC(=O)N32)OCCO4)cc1Cl	6.3	6	5.9	5.8	half-life at 1 µM [4]: 2.95 min; CLint scaled at 1 µM [5]: 589 mL/min/kg
CCN1C(=O)[C@@H]2Cc3cc4c(cc3[C@@H](c3cc(OC)c(OC)c(OC)c3)N2C1=O)OCO4	> 5000	> 5000	> 5000	> 5000	–
O=C1OC[C@@H]2Cc3cc4c(cc3[C@@H](c3cc(C(F)(F)F)cc(C(F)(F)F)c3)N12)OCCO4	202	56.8	100	312	–
COc1cc([C@@H]2c3cc4c(cc3C[C@H]3C(=O)NC(=O)N23)OCCO4)cc(OC)c1OC	31.9	21.4	16.9	27.2	half-life at 1 µM [4]: 21.4 min; CLint scaled at 1 µM [5]: 81.2 mL/min/kg
COc1cc([C@@H]2c3cc4c(cc3C[C@H]3C(=O)NCC(=O)N23)OCO4)cc(OC)c1OC	789	1920	2330	1240	–
COc1c(Br)cc([C@H]2c3cc4c(cc3C[C@H]3C(=O)NC(=O)N23)OCCO4)cc1Br	> 5000	> 5000	> 5000	> 5000	–
COc1ccc(/C=C\c2cc(OC)c(OC)c(OC)c2)cc1O [COMBRETASTATIN A4]	11.2	391	5.9	6.8	IC50 [8]: 15.4 nM; Activity [12]: Active; IC50 [11]: 49.9 nM; Activity [13]: Dose-Dependent Effect
COc1ccc([C@@H]2c3cc4c(cc3C[C@H]3COC(=O)N32)OCO4)cc1OC	593	755	> 5000	> 5000	–
COc1cc2c(cc1OC)[C@@H](c1cc(OC)c(OC)c(OC)c1)N1C(=O)OC[C@@H]1C2	> 5000	> 5000	> 5000	> 5000	–
COc1cc([C@@H]2c3cc4c(cc3C[C@H]3C(=O)NC(=O)N23)OCO4)cc(OC)c1OC	44.9	49.1	125	64.3	–
COc1cc([C@@H]2c3cc4c(cc3C[C@H]3COC(=O)N32)OCO4)ccn1	> 5000	> 5000	> 5000	> 5000	–
COc1cc([C@@H]2c3cc4c(cc3C[C@H]3C(=O)NCC(=O)N23)OCCO4)cc(OC)c1OC	785	749	1560	3120	–
COc1cc([C@@H]2c3cc4c(cc3C[C@H]3COC(=O)N32)OCO4)cc(OC)c1O	> 5000	> 5000	> 5000	> 5000	–
COc1cc([C@@H]2c3cc4c(cc3C[C@H]3C(=O)NC(=O)N23)OCCO4)cc2c1OCO2	91.7	74.8	36.2	46.9	–
